{"source": "patent US10123983B2", "about": "“DNA methyltransferases for the treatment and prevention of arthritis” (Washington University, priority 2015, dated 2018)", "key": {"[1]": {"test_system": "Dnmt3b LOF chondrocytes", "experiment": "Vigabatrin treatment of Dnmt3b LOF primary articular chondrocytes, hypertrophic marker expression", "type": "cell-based, mouse", "protocol": "FIG. 23A, FIG. 23B and FIG. 23C depict ablation of Dnmt3b in articular chondrocytes (ACs). Primary Acs from Dnmt3b^f/f mice were infected with Ad5-Cre or Ad-GFP for 48 hr and cultured for a further 48 hr with or without vigabatrin (500μM).\nTo determine if this effect is dependent upon increased Abat expression, experiments were performed using vigabatrin to inhibit Abat activity in articular chondrocytes. […] Work will comprehensively investigate the role of Abat in controlling both metabolism and hypertrophic/catabolic responses in articular chondrocytes, and define its role in the development of OA."}, "[2]": {"settings": "rodents, within the proposed dosage range; literature study (99); cited from earlier work"}, "[3]": {"test_system": "WT murine PACs", "experiment": "Chondrocyte gene expression in response to succinate treatment (qPCR)", "type": "cell-based, mouse", "protocol": "(§1) FIG. 13A, FIG. 13B, FIG. 13C, FIG. 13D, FIG. 13E, FIG. 13F, FIG. 13G, FIG. 13H, FIG. 13I, FIG. 13J, FIG. 13K, FIG. 13L, FIG. 13M and FIG. 13N depict graphs showing mitochondria function and cellular homeostasis in Dnmt3b LOF chondrocytes. Primary articular chondrocytes were isolated from 2 mo Dnmt3b^f/f mice and infected with Ad5-Cre (Dnmt3b LOF) or Ad5-GFP (Ctrl) for 48 h. (FIG. 13A, FIG. 13B, FIG. 13C) Mitochondrial respiration was measured by the Seahorse XF Extracellular Flux Analyzer. Basal respiration and maximal respiration, as measured by the oxygen consumption rate (OCR) are shown. (FIG. 13D, FIG. 13E, FIG. 13F) TCA metabolite (succinate, fumarate) and NADH analysis by HPLC-MS. (FIG. 13G, FIG. 13H, FIG. 13I) Mitochondrial metabolism analysis was measured in 2 mo WT cells treated with either 1 mM diethyl succinate or vehicle for 48 h by the Seahorse XF Extracellular Flux Analyzer. (FIG. 13J) Chondrocyte gene expression in response to succinate treatment was analyzed by qPCR. (FIG. 13K, FIG. 13L, FIG. 13M) Mitochondrial respiration analysis in BMP-2-treated 2 mo WT chondrocytes in the presence or absence antimycin A+rotenone for 48 h. (FIG. 13N) Analysis of chondrocyte gene expression in response to BMP-2 treatment+/−antimycin A+rotentone (0.1 μM).\nReal-time PCR and western blot. RNA was isolated from ATDC-5 chondrocytes or primary articular chondrocytes using RNeasy Mini kit (Qiagen). cDNA synthesis and real-time RT-PCR was performed according to manufacturer's instructions. Western blot analyses were conducted on the protein of lysates from either ATDC-5 cells or primary (murine or human) articular chondrocytes. The following primary antibodies were used: pSmad1/5 (Cell Signaling technology Inc., 1:500), pSmad2 (Cell Signaling technology Inc., 1:1000), Smad1/5/8 (Cell Signaling technology Inc., 1:1000), Smad2 (Cell Signaling technology Inc., 1:1000), DNMT3A (LSBio, 1:1000), DNMT3B (LSBio, 1:1000), FLAG (Life technology, 1:1000) and β-actin (Sigma, 1:2000)."}, "[4]": {"test_system": "WT murine PACs", "experiment": "Mitochondria stress test (Seahorse XF Extracellular Flux Analyzer) after succinate treatment", "type": "cell-based, mouse", "settings": "1 mM diethyl succinate, 48 h", "protocol": "as §1, with “(FIG. 13N) Analysis of chondrocyte gene expression in response to BMP-2 treatment+/−antimycin A+rotentone (0.1 μM).” left out\nMetabolite analysis and mitochondria stress test. […] Metabolites were analyzed by LC-MS/MS as previously described^60. […] At the end of the assays, protein concentrations were measured for normalization."}, "[5]": {"test_system": "Primary articular chondrocytes from 2 mo WT mice", "experiment": "Succinate concentration assay", "type": "cell-based, mouse", "settings": "1 mM diethyl succinate, 48 h", "protocol": "FIG. 15 depicts a graph showing cellular succinate levels in murine chondrocytes. Primary articular chondrocytes from 2 mo WT mice were treated with 1 mM diethyl succinate or vehicle for 48 h.\nSuccinate concentration assay. Primary articular chondrocytes isolated from 2 mo WT mice were treated with vehicle or diethylsuccinate (1 mM) for 48 h. Intracellular succinate concentration was measured using the succinate colorimetric assay kit following the manufacturer's instruction (Sigma, #MAK184-1KT)."}, "[6]": {"test_system": "human primary articular chondrocytes", "experiment": "IL-1β treatment of human primary articular chondrocytes, gene and protein expression", "type": "cell-based", "source_text": "FIG. 1A, FIG. 1B, FIG. 1C, FIG. 1D, FIG. 1E, FIG. 1F, FIG. 1G, FIG. 1H, FIG. 1I, FIG. 1J, FIG. 1K, FIG. 1L and FIG. 1M depict images, graphs and an immunoblot showing Dnmt3b expression in murine and human knee joint cartilage. (FIG. 1A, FIG. 1B) Dnmt3a is not expressed in chondrocytes from 3 mo WT articular cartilage [(FIG. 1B) represents a magnified image of the boxed region in (FIG. 1A)]. (FIG. 1C) Dnmt3a expression in pancreas tissue (positive control). (FIG. 1D, FIG. 1E, FIG. 1F) Robust expression of Dnmt3b in chondrocytes of 3 mo WT articular cartilage and lower expression in underlying growth plate cartilage; [(FIG. 1E) represents a magnified image of the dashed boxed area of articular cartilage in (FIG. 1D); (FIG. 1F) represents a magnified image of the solid boxed area of growth plate cartilage in (FIG. 1D)]. Dnmt3b expression is also shown in: (FIG. 1G) 3 mo versus 27 mo WT murine knee articular cartilage; (FIG. 1H) 14 wk old murine articular cartilage following MLI surgery compared to cartilage from sham control knees; (FIG. 1I) 14 wk murine articular cartilage in mice fed a high fat diet (HFD) compared to controls (Ctrl) fed a normal diet. (FIG. 1J) Two representative images showing DNMT3B expression in human healthy articular cartilage or osteoarthritic cartilage tissue sections. (FIG. 1K) Reduced DNMT3B expression in human primary OA chondrocytes compared to healthy chondrocytes). […] All scale bars, 100 μm.\nFIG. 3A and FIG. 3B depict graphs showing altered anabolic and catabolic gene expression in IL-1β-treated human primary chondrocytes. Reduced COL2A1 (FIG. 3A) and increased MMP13 (FIG. 3B) expression following IL-1β treatment (48 h) of human primary articular chondrocytes isolated from total knee replacement surgeries.\nFull thickness sections of human articular cartilage were removed from the femoral condyles and tibial plateaus of specimens obtained following total knee replacement surgery, diced into 2 mm cubes and digested in sterile spinner flasks for 90 min at 37° C. in pronase digestion buffer [DMEM/F12 (Gibco); 5% FBS (Atlanta Biologicals), 2% penicillin/streptomycin (Gibco) and 0.4% pronase (Roche)]. Following washes in HBSS (Gibco), tissue was further digested in collagenase digestion buffer at 37° C. [DMEM/F12; 5% FBS; 2% penicillin/streptomycin; 0.035% collagenase P (Roche)] for 14-16 hr. Cells were collected, filtered through 70 μm cell strainers (VWR) and plated at a density of 100,000 cells/cm^2. After 24 hr, chondrocytes were treated with IL-1β (10 ng/ml; Gibco) for 48 hr. Total RNA was collected using the Total RNA prep kit (Norgen Biotek) and cDNA was synthesized using Superscript RT II (Life Technologies).\nReal-time PCR and western blot. […]"}, "[7]": {"test_system": "primary articular chondrocytes", "experiment": "Cytokine-induced chondrocyte hypertrophy measured by ALP activity", "type": "cell-based, mouse", "settings": "cytokine treatment", "protocol": "FIG. 24 depicts Dnmt3b gain-of-function attenuates IL-1β-induced chondrocyte hypertrophy. Primary ACs from 2 mo Dnmt3b GOF mice were treated with vehicle or doxycycline (10 μg/ml) for 24 hr. Medium without or with IL-1β (1 ng/ml) was added for 48 hr and ALP staining performed using NBT/BCIP substrate solution.\nHypertrophic characteristics, as measured by ALP activity, were induced in primary articular chondrocytes by treatment with either IL-1β or TNF-α. Dnmt3b GOF was induced by transfecting a plasmid expressing full-length Flag-tagged Dnmt3b cDNA. Western blot confirmed protein over-expression (data not shown). […] Similar results were shown in the TNF-α experiment (results not shown)"}, "[8]": {"test_system": "Dnmt3b promoter", "experiment": "Dnmt3b promoter luciferase assay", "type": "cell-based, mouse", "settings": "ATDC-5 cells, IL-1β 1 ng/ml, 24 h, versus untreated control", "source_text": "(§2) FIG. 4A, FIG. 4B, FIG. 4C, FIG. 4D, FIG. 4E and FIG. 4F depict sequences, graphs and a nucleic acid gel and immunoblot showing IL-1β regulation of Dnmt3b is mediated in part by NF-κB. (FIG. 4A) Sequence alignment and conservation of an NF-κB binding site (red) in the promoter region of the Dnmt3b gene of different species. Mouse—SEQ ID NO:1; Human—SEQ ID NO:2; Dog; SEQ ID NO:3; Horse—SEQ ID NO:4. […] Reduced luciferase activity is attenuated when ATDC-5 cells were transfected with a reporter plasmid containing a mutated NF-κB binding site ([…]; SEQ ID NO:5). […] (FIG. 4E, FIG. 4F) Dnmt3b mRNA and protein levels were reduced in murine WT primary articular chondrocytes (extracted from 3 mo murine knee joints) following IL-1β induction (48 h).\nDnmt3b promoter luciferase assay. ATDC-5 cells were transfected with a pGL4 luciferase plasmid containing cDNA encoding 1 kb of the murine Dnmt3b promoter using X-tremeGENE transfection reagents (Roche, #06366236001). A Dnmt3b promoter construct containing mutations in the predicted NFκB binding site was also transfected into an additional set of ATDC-5 cells. All transfected cells were then treated with IL-1β (1 ng/ml) for 24 h before performing the luciferase assay."}, "[9]": {"test_system": "murine WT primary articular chondrocytes", "experiment": "IL-1β induction of murine WT primary articular chondrocytes, Dnmt3b expression", "type": "cell-based, mouse", "settings": "IL-1β induction 48 h", "source_text": "as §2\nReal-time PCR and western blot. RNA was isolated from ATDC-5 chondrocytes or primary articular chondrocytes using RNeasy Mini kit (Qiagen). cDNA synthesis and real-time RT-PCR was performed according to manufacturer's instructions. Western blot analyses were conducted on the protein of lysates from either ATDC-5 cells or primary (murine or human) articular chondrocytes. […]"}, "[10]": {"settings": "Abat inhibition with vigabatrin"}}, "data": [{"molecule": "C=CC(N)CCC(=O)O", "note": "(stereo not drawn) [vigabatrin]", "values": [{"measurement": "Col10a1 expression in Dnmt3b LOF chondrocytes", "setting": "[1]; [10]", "result": "attenuates the increased expression"}, {"measurement": "Mmp13 expression in Dnmt3b LOF chondrocytes", "setting": "[1]; [10]", "result": "attenuates the increased expression"}, {"measurement": "Runx2 expression in Dnmt3b LOF chondrocytes", "setting": "[1]; [10]", "result": "attenuates the increased expression"}, {"measurement": "catabolic responses in chondrocytes", "setting": "[1]; in vitro administration", "result": "can block catabolic responses"}, {"measurement": "hypertrophic gene expression induced by Dnmt3b LOF", "setting": "[1]; vigabatrin 500μM, 48 hr, primary ACs from Dnmt3b f/f mice infected with Ad5-Cre", "result": "partially attenuated"}, {"measurement": "side effects", "setting": "[2]", "result": "did not report any side effects"}]}, {"molecule": "CCOC(=O)CCC(=O)OCC", "note": "[diethyl succinate]", "values": [{"measurement": "Col2a1 expression", "setting": "[3]", "result": "decreased"}, {"measurement": "Mmp13 expression", "setting": "[3]", "result": "increase"}, {"measurement": "Runx2 expression", "setting": "[3]", "result": "increase"}, {"measurement": "basal respiration (OCR)", "setting": "[4]", "result": "increased"}, {"measurement": "maximal respiration (OCR)", "setting": "[4]", "result": "increased"}, {"measurement": "cellular succinate levels", "setting": "[5]", "result": "Increased levels of cellular succinate"}]}, {"molecule": "IL-1β: pro-inflammatory cytokine", "values": [{"measurement": "DNMT3B mRNA expression", "setting": "[6]; IL-1β 10 ng/ml, 48 hr", "result": "decreased"}, {"measurement": "DNMT3B protein expression", "setting": "[6]; IL-1β 10 ng/ml, 48 hr", "result": "decreased"}, {"measurement": "COL2A1 expression", "setting": "[6]; IL-1β treatment 48 h", "result": "Reduced"}, {"measurement": "MMP13 expression", "setting": "[6]; IL-1β treatment 48 h", "result": "increased"}, {"measurement": "hypertrophic characteristics, as measured by ALP activity", "setting": "[7]", "result": "induced"}, {"measurement": "luciferase expression of Dnmt3b promoter reporter", "setting": "[8]", "result": "Reduced luciferase expression"}, {"measurement": "Dnmt3b mRNA level", "setting": "[9]", "result": "reduced"}, {"measurement": "Dnmt3b protein level", "setting": "[9]", "result": "reduced"}]}, {"molecule": "TNF-α", "values": [{"measurement": "hypertrophic characteristics, as measured by ALP activity", "setting": "[7]", "result": "induced"}]}]}
